One may read the MIC as the smallest concentration in the dilution series that meets the test's criterion for growth inhibition. By MIC50 is commonly meant the lowest concentration that inhibits either 50% of growth or 50% of the strains tested, depending on the study. One may read the MIC90 as an inhibitory concentration at the 90% level, which refers to growth in some studies and to a panel of isolates in others. A lower MIC90 goes with greater potency.

Consider 3 compounds from patent EP0554004A2, “Cephem compounds and antibacterial agents” (KATAYAMA SEIYAKUSYO CO. Ltd., priority 1992, dated 1993).

In test [1] the test system is Bacillus subtilis ATCC 6633. Nature of the test: MIC against standard strains (Test Example 1). The following applies: ATCC6633, Muller-Hinton agar, 37°C overnight. Format: cell-based. How it is done: (§1) By using each test strain cultured overnight at 37°C in a Muller-Hinton broth, there was prepared a bacterial solution with a bacterial cell population of 1 x 10^6 CFU/mi of the same bouillon. The bacterial solution was inoculated into the Muller-Hinton agar media each containing respectively one test agent and, after overnight incubation at 37°C, the minimum concentration that inhibited growth of the bacteria was determined and shown as MIC also in Table 1.
(§2) Staphylococcus aureus 167 and Staphylococcus aureus 195 used in the test were MRSA. CTM (cefotiam) and FMOX (flomoxef) were used as control agents.

Test [2] has as its system Citrobacter freundii ATCC 8090. As to the kind of experiment: MIC against standard strains (Test Example 1). Format: cell-based. The following applies: ATCC8090, Muller-Hinton agar, 37°C overnight. How it is done: as §1, §2
The test system of test [3] is Enterobacter cloacae ATCC 13407. As to the kind of experiment: MIC against standard strains (Test Example 1). Format: cell-based. The following applies: ATCC13407, Muller-Hinton agar, 37°C overnight. How it is done:
as §1, §2

Test [4] has as its system Escherichia coli CSH2 (RE45). As to the kind of experiment: MIC against standard strains (Test Example 1). Format: cell-based. As to the method: as §1, §2
The subject of test [5] is Escherichia coli CSH2 (RK1). Nature of the test: MIC against standard strains (Test Example 1). Format: cell-based. As to the method: as §1, §2
In test [6] the test system is Escherichia coli NIHJ JC-2. Nature of the test: MIC against standard strains (Test Example 1). Format: cell-based. To be noted: NIHJJC2, Muller-Hinton agar, 37°C overnight. How it is done: as §1, §2
Test [7] concerns Klebsiella pneumoniae IFO 3317. Nature of the test: MIC against standard strains (Test Example 1). The class given is cell-based. To be noted: IFO3317, Muller-Hinton agar, 37°C overnight. As to the method:
as §1, §2

Test [8] has as its system Klebsiella pneumoniae No. 42. As to the kind of experiment: MIC against standard strains (Test Example 1). The class given is cell-based. The following applies: Muller-Hinton agar, 37°C overnight. How it is done: as §1, §2
Test [9] deals with Micrococcus luteus ATCC 9341. Nature of the test: MIC against standard strains (Test Example 1). The class given is cell-based. To be noted: ATCC9341, Muller-Hinton agar, 37°C overnight. How it is done:
as §1, §2

Test [10] deals with Morganella morganii IFO 3848. As to the kind of experiment: MIC against standard strains (Test Example 1). The class given is cell-based. To be noted: IFO3848, Muller-Hinton agar, 37°C overnight. As to the method:
as §1, §2

Test [11] relates to Proteus mirabilis IFO 3849. As to the kind of experiment: MIC against standard strains (Test Example 1). The class given is cell-based. The following applies: IFO3849, Muller-Hinton agar, 37°C overnight. How it is done:
as §1, §2

The test system of a further test is Proteus vulgalis OX-19. As to the kind of experiment: MIC against standard strains (Test Example 1). The class given is cell-based. To be noted: Muller-Hinton agar, 37°C overnight. As to the method:
as §1, §2

For test [12], the system named is Pseudomonas aeruginosa NCTC 10490. Nature of the test: MIC against standard strains (Test Example 1). The class given is cell-based. To be noted: NCTC10490, Muller-Hinton agar, 37°C overnight. How it is done:
as §1, §2

In test [13] the test system is Psuedomonas aeruginosa IFO 3445. As to the kind of experiment: MIC against standard strains (Test Example 1). Format: cell-based. The following applies: Muller-Hinton agar, 37°C overnight. As to the method: as §1, §2
The subject of test [14] is Serratia marcescens IAM 1184. Nature of the test: MIC against standard strains (Test Example 1). Format: cell-based. The following applies: IAM1184, Muller-Hinton agar, 37°C overnight. How it is done:
as §1, §2

Test [15] relates to Staphylococcus aureus 167. Nature of the test: MIC against standard strains (Test Example 1). The class given is cell-based. The following applies: Staphylococcus aureus 167 (MRSA); Muller-Hinton agar, 37°C overnight. How it is done: as §1, §2
Test [16] deals with Staphylococcus aureus 195. Nature of the test: MIC against standard strains (Test Example 1). The following applies: Staphylococcus aureus 195 (MRSA); Muller-Hinton agar, 37°C overnight. The class given is cell-based. As to the method: as §1, §2
Test [17] relates to Staphylococcus aureus 209P JC-1. As to the kind of experiment: MIC against standard strains (Test Example 1). Format: cell-based. The following applies: Muller-Hinton agar, 37°C overnight. As to the method: as §1, §2
The subject of test [18] is Staphylococcus aureus Smith. As to the kind of experiment: MIC against standard strains (Test Example 1). To be noted: Muller-Hinton agar, 37°C overnight. Format: cell-based. As to the method: as §1, §2
In test [19] the test system is Staphylococcus epidermidis IAM 1296. Nature of the test: MIC against standard strains (Test Example 1). To be noted: IAM1296, Muller-Hinton agar, 37°C overnight. Format: cell-based. As to the method:
as §1, §2

For another test, the system named is clinically isolated MRSA. As to the kind of experiment: Antibacterial potency against clinically isolated MRSA (Test Example 2). The following applies: Staphylococcus aureus, 52 strains of clinically isolated MRSA; for MIC50: concentration inhibiting growth of 50% of the strains (Test Example 2); for MIC90: concentration inhibiting growth of 90% of the strains (Test Example 2). The class given is cell-based, methicillin-resistant Staphylococcus aureus. As to the method:
A test on the antibacterial potency against clinically isolated MRSA was conducted in the following way.
52 strains of clinically isolated MRSA were used, and MIC was determined for each of the strains according to the standard method of the Japan Chemotherapical Society as in Test Example 1. The minimum growth inhibitory concentration which inhibited growth of 50% of the strains tested was expressed as MIC50 (µg/ml), and the minimum growth inhibitory concentration which inhibited growth of 90% of the strains was expressed as MIC90 (µg/ml).
In this test, FMOX (flomoxef), IPM/CS (imipenem/cilastatin), CMZ (cefmetazole), MINO (minocycline) and DMPPC (methicillin) were used as control agents.

Structures are written as SMILES. Counter-ions that a name gives are not always drawn.

Turning to `Nc1nc(/C(=N/O)C(=O)N[C@@H]2C(=O)N3C(C(=O)[O-])=C(C[n+]4ccc(-c5csc(N)n5)cc4)CS[C@H]23)cs1` [Compound (5), 7β-[2-(2-aminothiazol-4-yl)-2-syn-hydroxyiminoacetamido]-3-[[4-(2-aminothiazol-4-yl)-1-pyridi-i-nio]methyl]-3-cephem-4-carboxylic acid chloride], the MIC in test [1] was 0.2 µg/mL; in [2], 0.2 µg/mL; in test [3], 0.78 µg/mL; in [4], 0.05 µg/mL; in test [5], 0.2 µg/mL; in test [6], 0.2 µg/mL. Further, the MIC in [7] was 0.05 µg/mL; in test [8] it was 0.1 µg/mL; in test [9] it was 0.025 µg/mL; in [10] it was 0.05 µg/mL; in test [11], 0.1 µg/mL; against Proteus vulgalis OX-19 it was 0.2 µg/mL. Moreover, the MIC is 1.56 µg/mL in test [12]; 25 µg/mL in test [13]; 0.2 µg/mL in test [14]; 6.25 µg/mL in [15]; 3.13 µg/mL in test [16]; 0.2 µg/mL in [17]. The MIC came out at 0.2 µg/mL in [18] and 0.1 µg/mL in test [19]. Moreover, the MIC50 with clinically isolated MRSA worked out at 3.13 µg/mL. Also, the MIC90 against clinically isolated MRSA was 8.69 µg/mL.
`CC(=O)c1ccc[n+](CC2=C(C(=O)[O-])N3C(=O)[C@@H](NC(=O)/C(=N\O)c4csc(N)n4)[C@H]3SC2)c1` [Compound (2), 7β-[2-(2-aminothiazol-4-yl)-2-syn-hydroxyiminoacetamido]-3-[(3-acetyl-1-pyridinio)methyl]-3-cephem-4-carboxylic acid chloride]: the MIC worked out at 0.78 µg/mL in test [1]; 0.39 µg/mL in test [2]; 1.56 µg/mL in test [3]; 0.78 µg/mL in test [4]; 0.78 µg/mL in test [5]; 0.39 µg/mL in test [6]. The MIC in test [7] came out at 0.39 µg/mL; in [8] it was 0.78 µg/mL; in test [9], 0.1 µg/mL; in test [10], 0.2 µg/mL; in [11], 0.39 µg/mL; in the test with Proteus vulgalis OX-19, 0.39 µg/mL. Besides, the MIC in [12] came out at 3.13 µg/mL; in test [13], 25 µg/mL; in test [14] it was 0.39 µg/mL; in test [15] it was 12.5 µg/mL; in [16] it was 6.25 µg/mL; in [17] it was 0.2 µg/mL. In addition, the MIC in test [18] is 0.39 µg/mL; in [19], 0.2 µg/mL. Also, the MIC50 in the test on clinically isolated MRSA amounted to 3.77 µg/mL. The compound also gave an MIC90 in the test with clinically isolated MRSA of 9.47 µg/mL.
On to `Nc1ccc[n+](CC2=C(C(=O)[O-])N3C(=O)[C@@H](NC(=O)/C(=N\O)c4csc(N)n4)[C@H]3SC2)c1` [Compound (3), 7β-[2-(2-aminothiazol-4-yl)-2-syn-hydroxyiminoacetamido]-3-[(3-amino-1-pyridinio)methyl]-3-cephem-4-carboxylate hydrochloride], for which the MIC in test [1] was 0.2 µg/mL; in [2], 0.2 µg/mL; in [3], 3.13 µg/mL; in [4], 0.2 µg/mL; in [5], 0.39 µg/mL; in test [6], 0.2 µg/mL. In addition, the MIC in [7] was 0.1 µg/mL; in [8] it was 0.2 µg/mL; in test [9], 0.05 µg/mL; in test [10], 0.05 µg/mL; in test [11], 0.2 µg/mL; against Proteus vulgalis OX-19, 0.39 µg/mL. Moreover, the MIC in test [12] was determined as 3.13 µg/mL; in [13], 6.25 µg/mL; in [14], 0.1 µg/mL; in test [15], 12.5 µg/mL; in test [16] it was 3.13 µg/mL; in test [17], 0.2 µg/mL. The figures for the MIC in [18] and in test [19] were 0.39 µg/mL and 0.1 µg/mL, respectively. This compound gave an MIC50 against clinically isolated MRSA of 3.94 µg/mL. Besides, the MIC90 against clinically isolated MRSA worked out at 9.21 µg/mL.
